We go through 6 compounds from patent US9340590B2 (priority 2011, dated 2016).

Common to all, as to assay: cell-based
One experiment concerns the target hNav1.3 (Homo sapiens, UniProt Q9NY46). Conditions: IonWorks Quattro, read-out: IWQ Use Nav1.3. For orientation: In patch-clamp work, channel activity is measured electrically.
The next experiment addresses hNav1.7 (Homo sapiens, UniProt Q15858). The format is cell-based. Conditions: IonWorks Quattro.
In a further experiment the target is hNav1.5 (Homo sapiens, UniProt Q14524).
Sequence of hNav1.5 (Q14524 whole entry, looked up): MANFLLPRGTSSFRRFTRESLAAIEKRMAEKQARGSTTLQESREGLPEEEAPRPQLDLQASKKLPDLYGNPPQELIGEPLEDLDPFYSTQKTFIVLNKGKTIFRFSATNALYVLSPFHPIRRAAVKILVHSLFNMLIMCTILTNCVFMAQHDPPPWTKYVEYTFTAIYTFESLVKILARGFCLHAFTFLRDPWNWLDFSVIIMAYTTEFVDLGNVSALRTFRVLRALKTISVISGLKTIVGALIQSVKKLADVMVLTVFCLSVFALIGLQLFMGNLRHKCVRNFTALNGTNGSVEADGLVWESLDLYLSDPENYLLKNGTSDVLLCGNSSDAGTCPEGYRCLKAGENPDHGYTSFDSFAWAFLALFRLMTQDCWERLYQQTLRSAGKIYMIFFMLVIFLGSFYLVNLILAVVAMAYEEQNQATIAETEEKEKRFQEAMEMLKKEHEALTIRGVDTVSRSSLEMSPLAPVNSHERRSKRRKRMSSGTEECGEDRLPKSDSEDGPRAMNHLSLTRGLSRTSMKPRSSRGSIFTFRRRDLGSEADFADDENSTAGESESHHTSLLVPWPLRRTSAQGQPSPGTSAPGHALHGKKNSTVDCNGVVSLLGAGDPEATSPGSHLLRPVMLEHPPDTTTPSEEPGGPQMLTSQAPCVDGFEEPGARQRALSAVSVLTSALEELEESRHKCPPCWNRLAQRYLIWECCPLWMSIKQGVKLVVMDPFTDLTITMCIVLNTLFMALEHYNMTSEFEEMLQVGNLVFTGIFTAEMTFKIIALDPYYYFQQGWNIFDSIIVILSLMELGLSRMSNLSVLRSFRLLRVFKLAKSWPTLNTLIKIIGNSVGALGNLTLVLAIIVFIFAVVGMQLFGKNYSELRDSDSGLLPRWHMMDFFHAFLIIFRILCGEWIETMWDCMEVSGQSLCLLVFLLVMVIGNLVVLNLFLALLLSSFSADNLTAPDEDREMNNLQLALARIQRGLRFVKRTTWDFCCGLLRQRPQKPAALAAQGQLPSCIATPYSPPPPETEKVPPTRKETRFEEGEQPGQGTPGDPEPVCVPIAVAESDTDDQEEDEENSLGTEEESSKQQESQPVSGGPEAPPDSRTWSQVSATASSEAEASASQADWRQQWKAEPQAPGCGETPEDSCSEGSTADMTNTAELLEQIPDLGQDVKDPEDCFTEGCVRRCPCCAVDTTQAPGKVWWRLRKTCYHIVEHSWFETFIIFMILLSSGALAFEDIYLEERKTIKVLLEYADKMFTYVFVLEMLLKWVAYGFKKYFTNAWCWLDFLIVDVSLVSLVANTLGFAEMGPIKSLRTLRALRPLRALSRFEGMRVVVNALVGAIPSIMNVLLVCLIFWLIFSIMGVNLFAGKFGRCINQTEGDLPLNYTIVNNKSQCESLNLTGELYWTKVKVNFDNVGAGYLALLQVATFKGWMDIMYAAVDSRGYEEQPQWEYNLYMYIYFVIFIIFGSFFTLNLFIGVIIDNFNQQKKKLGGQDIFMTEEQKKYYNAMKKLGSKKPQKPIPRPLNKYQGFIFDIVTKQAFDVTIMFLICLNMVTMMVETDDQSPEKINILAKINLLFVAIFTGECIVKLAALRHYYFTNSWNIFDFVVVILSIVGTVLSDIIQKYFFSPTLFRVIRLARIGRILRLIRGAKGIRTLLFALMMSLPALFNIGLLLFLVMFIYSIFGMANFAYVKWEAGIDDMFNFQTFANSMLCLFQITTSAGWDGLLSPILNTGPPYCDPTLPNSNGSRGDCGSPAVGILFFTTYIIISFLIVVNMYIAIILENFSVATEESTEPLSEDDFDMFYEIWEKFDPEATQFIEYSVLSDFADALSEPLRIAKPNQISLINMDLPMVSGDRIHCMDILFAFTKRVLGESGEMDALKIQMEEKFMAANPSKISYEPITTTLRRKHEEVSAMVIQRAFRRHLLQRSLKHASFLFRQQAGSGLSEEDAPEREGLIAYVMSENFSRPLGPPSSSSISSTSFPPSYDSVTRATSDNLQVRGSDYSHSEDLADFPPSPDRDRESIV
The mark [1] stands for this setting: use-dependent block, hNav1.7, read-out: IWQ Use Nav1.7.
Setting [2] is: IonWorks Quattro, use-dependent block, hNav1.5, read-out: IWQ Use Nav1.5.

SMILES strings stand for the structures. Like-named read-outs stand apart in the source and are kept apart here. Positions of bridges follow the written chain, without caps; N, C: chain ends. Non-standard residues stand in square brackets, D forms with d. Residues, ends and D or L forms follow the SMILES beside them. Phe(4-NH2) = Nc1ccc(C[C@H](N)C(=O)O)cc1; 2Pal = N[C@@H](Cc1ccccn1)C(=O)O; Lys(Me) = CNCCCC[C@H](N)C(=O)O; Pra = C#CC[C@H](N)C(=O)O

Sequence of hNav1.7 (Q15858 whole entry, looked up): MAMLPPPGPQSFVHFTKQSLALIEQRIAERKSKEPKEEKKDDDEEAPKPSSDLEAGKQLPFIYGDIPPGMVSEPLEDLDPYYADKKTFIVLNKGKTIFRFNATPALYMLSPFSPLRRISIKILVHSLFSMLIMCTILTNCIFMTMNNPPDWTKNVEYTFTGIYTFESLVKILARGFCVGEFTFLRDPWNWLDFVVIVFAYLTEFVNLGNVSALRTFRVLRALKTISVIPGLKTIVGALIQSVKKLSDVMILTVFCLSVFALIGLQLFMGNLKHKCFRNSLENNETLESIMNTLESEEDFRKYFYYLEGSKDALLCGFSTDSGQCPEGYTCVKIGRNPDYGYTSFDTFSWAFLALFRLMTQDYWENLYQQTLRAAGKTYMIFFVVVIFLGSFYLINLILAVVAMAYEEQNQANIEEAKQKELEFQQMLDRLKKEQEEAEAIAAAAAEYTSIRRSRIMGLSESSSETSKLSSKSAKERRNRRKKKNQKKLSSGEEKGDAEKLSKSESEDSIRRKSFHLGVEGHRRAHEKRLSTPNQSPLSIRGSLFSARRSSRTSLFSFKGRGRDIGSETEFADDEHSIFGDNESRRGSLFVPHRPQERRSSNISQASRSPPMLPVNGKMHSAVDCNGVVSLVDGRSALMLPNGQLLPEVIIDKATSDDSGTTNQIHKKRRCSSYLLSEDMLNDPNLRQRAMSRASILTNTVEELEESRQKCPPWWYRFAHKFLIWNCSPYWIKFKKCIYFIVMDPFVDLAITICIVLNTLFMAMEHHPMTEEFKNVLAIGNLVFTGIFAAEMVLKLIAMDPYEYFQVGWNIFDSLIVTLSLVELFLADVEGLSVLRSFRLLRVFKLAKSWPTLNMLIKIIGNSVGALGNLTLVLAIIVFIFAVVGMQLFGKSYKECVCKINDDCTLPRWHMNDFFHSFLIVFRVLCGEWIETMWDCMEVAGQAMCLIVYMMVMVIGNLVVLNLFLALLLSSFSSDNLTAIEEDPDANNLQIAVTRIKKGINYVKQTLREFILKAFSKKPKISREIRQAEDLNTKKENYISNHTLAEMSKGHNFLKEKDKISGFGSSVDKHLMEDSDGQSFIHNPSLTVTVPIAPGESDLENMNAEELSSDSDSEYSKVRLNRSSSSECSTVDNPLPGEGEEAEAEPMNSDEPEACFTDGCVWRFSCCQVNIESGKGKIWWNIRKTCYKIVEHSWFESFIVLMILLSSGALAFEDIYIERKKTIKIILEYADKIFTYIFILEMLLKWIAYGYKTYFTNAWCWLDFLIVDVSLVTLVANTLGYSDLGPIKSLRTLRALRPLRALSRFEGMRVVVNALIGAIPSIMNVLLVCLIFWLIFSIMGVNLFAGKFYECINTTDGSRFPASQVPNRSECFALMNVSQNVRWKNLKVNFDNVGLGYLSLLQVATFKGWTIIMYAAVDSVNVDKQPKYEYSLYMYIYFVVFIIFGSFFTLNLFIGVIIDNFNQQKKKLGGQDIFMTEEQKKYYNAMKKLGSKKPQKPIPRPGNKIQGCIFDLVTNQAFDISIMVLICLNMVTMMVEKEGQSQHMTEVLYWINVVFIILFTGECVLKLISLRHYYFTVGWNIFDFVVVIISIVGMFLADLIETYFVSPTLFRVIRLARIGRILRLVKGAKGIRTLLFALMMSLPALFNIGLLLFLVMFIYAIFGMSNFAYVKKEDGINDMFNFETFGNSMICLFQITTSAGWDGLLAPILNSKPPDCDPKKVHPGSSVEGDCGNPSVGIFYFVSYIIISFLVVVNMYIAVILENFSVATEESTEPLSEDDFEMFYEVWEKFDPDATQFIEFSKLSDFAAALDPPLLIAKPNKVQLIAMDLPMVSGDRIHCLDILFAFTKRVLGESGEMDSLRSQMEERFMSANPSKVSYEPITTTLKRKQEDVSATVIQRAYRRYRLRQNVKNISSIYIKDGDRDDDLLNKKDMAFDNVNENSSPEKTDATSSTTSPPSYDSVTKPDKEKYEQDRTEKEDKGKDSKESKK

As for `CC[C@H](C)[C@@H]1NC(=O)[C@@H]2CSSC[C@@H]3NC(=O)[C@H](C(C)C)NC(=O)[C@H](CC(C)C)NC(=O)[C@H](CC(N)=O)NC(=O)[C@@H]4CCCN4C(=O)[C@H](CCCNC(=N)N)NC(=O)[C@H](CSSC[C@H](NC(=O)[C@@H](N)CC(=O)O)C(=O)N[C@@H](CC(C)C)C(=O)NCC(=O)N[C@@H](C)C(=O)N[C@@H](CCSC)C(=O)N[C@@H](CCCNC(=N)N)C(=O)N[C@@H](CCCCN)C(=O)N2)NC(=O)[C@H](CSSC[C@@H](C(=O)N[C@@H](CCCCN)C(=O)N[C@@H](Cc2ccc(O)cc2)C(=O)N[C@H](C(=O)N[C@@H](Cc2ccccc2)C(N)=O)C(C)C)NC(=O)[C@H](Cc2c[nH]c4ccccc24)NC(=O)[C@H](CCCCNC)NC(=O)[C@H](Cc2c[nH]cn2)NC(=O)[C@H]([C@@H](C)O)NC(=O)[C@H](CCCNC(=N)N)NC(=O)[C@H](CO)NC3=O)NC(=O)[C@H](CCCCN)NC(=O)[C@H](CC(=O)O)NC(=O)[C@H](CC(N)=O)NC(=O)[C@H](CC(=O)O)NC(=O)[C@@H]2CCCN2C1=O` [compound 771] (H-DCLGAMRKCIPDNDKCCRPNLVCSRTH[Lys(Me)]WCKYVF-NH2; disulfide 2-17, 9-23, 16-30), the IC50 at hNav1.3 (use-dependent block, hNav1.3) was 1.8 µM; at hNav1.7 (setting [1]) it was 1.6 µM; on hNav1.5 (setting [2]), 40.1 µM.
In the same order, the values of `C#CC[C@@H]1NC(=O)[C@H](CC(=O)O)NC(=O)[C@@H]2CCCN2C(=O)[C@H]([C@@H](C)CC)NC(=O)[C@@H]2CSSC[C@@H]3NC(=O)[C@H](C(C)C)NC(=O)[C@H](CC(C)C)NC(=O)[C@H](CC(N)=O)NC(=O)[C@@H]4CCCN4C(=O)[C@H](CCCNC(=N)N)NC(=O)[C@H](CSSC[C@H](NC(=O)[C@@H](N)CC(=O)O)C(=O)N[C@@H](CC(C)C)C(=O)NCC(=O)N[C@@H](C)C(=O)N[C@@H](Cc4ccccc4)C(=O)N[C@@H](CCCNC(=N)N)C(=O)N[C@@H](CCCCN)C(=O)N2)NC(=O)[C@H](CSSC[C@@H](C(=O)N[C@@H](CCCCN)C(=O)N[C@@H](Cc2ccc(O)cc2)C(=O)N[C@H](C(=O)N[C@@H](Cc2ccccc2)C(N)=O)C(C)C)NC(=O)[C@H](Cc2c[nH]c4ccccc24)NC(=O)[C@H](CCCCN)NC(=O)[C@H](Cc2c[nH]cn2)NC(=O)[C@H]([C@@H](C)O)NC(=O)[C@H](CCCNC(=N)N)NC(=O)[C@H](CO)NC3=O)NC(=O)[C@H](CCCCN)NC(=O)[C@H](CC(=O)O)NC1=O` [compound 793] (H-DCLGAFRKCIPD[Pra]DKCCRPNLVCSRTHKWCKYVF-NH2; disulfide 2-17, 9-23, 16-30) are 0.47 µM, 0.53 µM and 28.6 µM.
For the compound `CC[C@H](C)[C@@H]1NC(=O)[C@@H]2CSSC[C@@H]3NC(=O)[C@H](C(C)C)NC(=O)[C@H](CC(C)C)NC(=O)[C@H](CC(N)=O)NC(=O)[C@@H]4CCCN4C(=O)[C@H](CCCNC(=N)N)NC(=O)[C@H](CSSC[C@H](NC(=O)[C@@H](N)CC(=O)O)C(=O)N[C@@H](CC(C)C)C(=O)NCC(=O)N[C@@H](C)C(=O)N[C@@H](CCSC)C(=O)N[C@@H](CCCNC(=N)N)C(=O)N[C@@H](CCCCN)C(=O)N2)NC(=O)[C@H](CSSC[C@@H](C(=O)N[C@@H](CCCCN)C(=O)N[C@@H](Cc2ccc(O)cc2)C(=O)N[C@H](C(=O)N[C@@H](Cc2ccccc2)C(N)=O)C(C)C)NC(=O)[C@H](Cc2c[nH]c4ccccc24)NC(=O)[C@H](CCC(=O)O)NC(=O)[C@H](Cc2c[nH]cn2)NC(=O)[C@H]([C@@H](C)O)NC(=O)[C@H](CCCNC(=N)N)NC(=O)[C@H](CO)NC3=O)NC(=O)[C@H](CCCCN)NC(=O)[C@H](CC(=O)O)NC(=O)[C@H](CC(N)=O)NC(=O)[C@H](CC(=O)O)NC(=O)[C@@H]2CCCN2C1=O` [compound 435], the IC50 at hNav1.3 (use-dependent block, hNav1.3) was above 5 µM; on hNav1.7 (setting [1]), above 5 µM; on hNav1.5 (setting [2]), 3.66 µM.
For `CC[C@H](C)[C@@H]1NC(=O)[C@@H]2CSSC[C@@H]3NC(=O)[C@H](C(C)C)NC(=O)[C@H](CC(C)C)NC(=O)[C@H](CC(N)=O)NC(=O)[C@@H]4CCCN4C(=O)[C@H](CCCNC(=N)N)NC(=O)[C@H](CSSC[C@H](NC(=O)[C@@H](N)CC(=O)O)C(=O)N[C@@H](CC(C)C)C(=O)NCC(=O)N[C@@H](Cc4ccccc4)C(=O)N[C@@H](CCSC)C(=O)N[C@@H](CCCNC(=N)N)C(=O)N[C@@H](CCCCN)C(=O)N2)NC(=O)[C@H](CSSC[C@@H](C(=O)N[C@@H](CCCCN)C(N)=O)NC(=O)[C@H](Cc2c[nH]c4ccccc24)NC(=O)[C@H](CCCCN)NC(=O)[C@H](Cc2cnc[nH]2)NC(=O)[C@H]([C@@H](C)O)NC(=O)[C@H](CCCNC(=N)N)NC(=O)[C@H](CO)NC3=O)NC(=O)[C@H](CCCCN)NC(=O)[C@H](CC(=O)O)NC(=O)[C@H](CC(N)=O)NC(=O)[C@H](CC(=O)O)NC(=O)[C@@H]2CCCN2C1=O` [compound 417] (H-DCLGFMRKCIPDNDKCCRPNLVCSRTHKWCK-NH2; disulfide 2-17, 9-23, 16-30), the IC50 was determined as 9.09 µM on hNav1.3 (use-dependent, […]); 18.3 µM on hNav1.7 (use-dependent, […], read-out: IWQ Use Nav1.7 (μm)); 11.9 µM at hNav1.5 (IWQ Use Nav1.5 (μM)).
As for `CC[C@H](C)[C@@H]1NC(=O)[C@@H]2CSSC[C@@H]3NC(=O)[C@H](C(C)C)NC(=O)[C@H](CC(C)C)NC(=O)[C@H](CC(N)=O)NC(=O)[C@@H]4CCCN4C(=O)[C@H](CCCNC(=N)N)NC(=O)[C@H](CSSC[C@H](NC(=O)[C@@H](N)CC(=O)O)C(=O)N[C@@H](CC(C)C)C(=O)NCC(=O)N[C@@H](C)C(=O)N[C@@H](CCSC)C(=O)N[C@@H](CCCNC(=N)N)C(=O)N[C@@H](CCCCN)C(=O)N2)NC(=O)[C@H](CSSC[C@@H](C(=O)N[C@@H](CCCCN)C(=O)N[C@@H](Cc2ccc(O)cc2)C(=O)N[C@H](C(=O)N[C@@H](Cc2ccccc2)C(N)=O)C(C)C)NC(=O)[C@H](Cc2c[nH]c4ccccc24)NC(=O)[C@H](Cc2ccc(N)cc2)NC(=O)[C@H](Cc2c[nH]cn2)NC(=O)[C@H]([C@@H](C)O)NC(=O)[C@H](CCCNC(=N)N)NC(=O)[C@H](CO)NC3=O)NC(=O)[C@H](CCCCN)NC(=O)[C@H](CC(=O)O)NC(=O)[C@H](CC(N)=O)NC(=O)[C@H](CC(=O)O)NC(=O)[C@@H]2CCCN2C1=O` [compound 741] (H-DCLGAMRKCIPDNDKCCRPNLVCSRTH[Phe(4-NH2)]WCKYVF-NH2; disulfide 2-17, 9-23, 16-30), the IC50 at hNav1.3 (use-dependent block, hNav1.3) was 2.3 µM; at hNav1.7 (setting [1]), 1.1 µM; at hNav1.5 (setting [2]) it was 24.4 µM.
On to `CC[C@H](C)[C@@H]1NC(=O)[C@@H]2CSSC[C@@H]3NC(=O)[C@H](C(C)C)NC(=O)[C@H](CC(C)C)NC(=O)[C@H](CC(N)=O)NC(=O)[C@@H]4CCCN4C(=O)[C@H](Cc4ccccn4)NC(=O)[C@H](CSSC[C@H](NC(=O)[C@@H](N)CC(=O)O)C(=O)N[C@@H](CC(C)C)C(=O)NCC(=O)N[C@@H](Cc4ccccc4)C(=O)N[C@@H](CCSC)C(=O)N[C@@H](CCCNC(=N)N)C(=O)N[C@@H](CCCCN)C(=O)N2)NC(=O)[C@H](CSSC[C@@H](C(=O)N[C@@H](CCCCN)C(=O)N[C@@H](Cc2ccc(O)cc2)C(=O)N[C@H](C(=O)N[C@@H](Cc2ccccc2)C(N)=O)C(C)C)NC(=O)[C@H](Cc2c[nH]c4ccccc24)NC(=O)[C@H](CCCCN)NC(=O)[C@H](Cc2cnc[nH]2)NC(=O)[C@H]([C@@H](C)O)NC(=O)[C@H](CCCNC(=N)N)NC(=O)[C@H](CO)NC3=O)NC(=O)[C@H](CCCCN)NC(=O)[C@H](CC(=O)O)NC(=O)[C@H](CC(N)=O)NC(=O)[C@H](CC(=O)O)NC(=O)[C@@H]2CCCN2C1=O` [compound 316] (H-DCLGFMRKCIPDNDKCC[2Pal]PNLVCSRTHKWCKYVF-NH2; disulfide 2-17, 9-23, 16-30), for which the IC50 on hNav1.3 (Use) is 0.06 µM; on hNav1.7 (Use, read-out: IWQ Use Nav1.7), 0.19 µM; at hNav1.5 (IonWorks Quattro, Use, read-out: IWQ Use Nav1.5), 9.17 µM.
